From ChEMBL document CHEMBL1154387, “Discovery of novel non-peptide inhibitors of BACE-1 using virtual high-throughput screening” (Bioorg Med Chem Lett, 2009)
pIC50: −log10 of the molar value.

Tests used:
Beta-secretase 1 [1] = biological target: T1, Beta-secretase 1 (Homo sapiens, UniProt P56817); assay: Inhibition of human recombinant BACE1; parameters: concentration or dose not given beside the values; conditions: concentration not given here
Beta-secretase 1 [2] = biological target: T1, Beta-secretase 1; assay: Inhibition of human recombinant BACE1 at 100 uM

T1 sequence (P56817 whole entry): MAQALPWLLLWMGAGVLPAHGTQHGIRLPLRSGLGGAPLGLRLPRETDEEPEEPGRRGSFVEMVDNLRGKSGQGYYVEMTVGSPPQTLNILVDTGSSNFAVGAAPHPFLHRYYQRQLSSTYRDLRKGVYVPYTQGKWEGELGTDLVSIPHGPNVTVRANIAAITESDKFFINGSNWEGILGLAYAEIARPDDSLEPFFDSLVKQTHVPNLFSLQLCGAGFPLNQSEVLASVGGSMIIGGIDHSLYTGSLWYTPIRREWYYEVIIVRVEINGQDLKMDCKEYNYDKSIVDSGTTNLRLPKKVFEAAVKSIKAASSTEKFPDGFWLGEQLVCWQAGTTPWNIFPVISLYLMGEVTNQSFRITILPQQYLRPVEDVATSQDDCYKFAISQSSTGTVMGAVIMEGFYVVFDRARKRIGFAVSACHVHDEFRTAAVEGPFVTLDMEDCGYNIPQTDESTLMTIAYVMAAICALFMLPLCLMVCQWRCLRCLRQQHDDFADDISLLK

| inhibition (Beta-secretase 1 [1]) [%] | pIC50 (Beta-secretase 1 [2]) | SMILES |
| --- | --- | --- |
| 28.8 |  | Cc1ccc(NC(=O)CN2C(=O)/C(=N\NC(=O)c3cccc([N+](=O)[O-])c3)c3ccccc32)cc1 |
| 14.3 |  | CN1C(=O)/C(=N\NC(=O)c2cc([N+](=O)[O-])ccc2O)c2ccccc21 |
| 84.5 | 5.62 | Cc1ccc(NC(=O)CN2C(=O)/C(=N\NC(=O)c3cc([N+](=O)[O-])ccc3O)c3ccccc32)cc1 |
| 35.2 |  | O=C1Nc2ccccc2/C1=N/NC(=O)c1cc([N+](=O)[O-])ccc1O |
| 92 | 5.32 | O=C(CN1C(=O)/C(=N\NC(=O)c2cc([N+](=O)[O-])ccc2O)c2ccccc21)NC1CCCCC1 |
| 71.1 |  | Cc1ccc(NC(=O)CN2C(=O)/C(=N\NC(=O)c3ccccc3O)c3ccccc32)cc1 |
| 20.2 |  | COc1ccc([N+](=O)[O-])cc1C(=O)N/N=C1\C(=O)N(CC(=O)Nc2ccc(C)cc2)c2ccccc21 |
| 74.6 |  | O=C(CN1C(=O)/C(=N\NC(=O)c2cc([N+](=O)[O-])ccc2O)c2ccccc21)Nc1ccc(C(F)(F)F)cc1 |
